Test results as given in PubChem BioAssay AID1996.
In brackets after ≈: the same amount, converted by molar mass.

Details: buffer; pH 7.4; 200.0 µM

Structure (SMILES)	solubility kinetic [µg/mL]
CCOC(=O)c1cc(NC(=O)CCC(=O)O)ccc1N1CCCCC1	51.3 (≈ 147 µM)
O=C(Nc1ccc(Cl)cc1)N1CCCC(Cn2cccc2)C1 (stereo not given)	> 47.7
CCOc1ccc(-c2cn3ccccc3n2)cc1	18.1 (≈ 76 µM)
O=C(NCc1ccccc1)C1CC(=O)N(C2CCCCCC2)C1 (stereo not given)	> 47.2
COc1ccccc1CC(=O)Nc1cccc2ccccc12	2.5 (≈ 8.58 µM)
COc1ccc(CC(=O)NCCCCc2ccccc2)cc1OC	> 49.1
CCc1cccc(NC(=O)C2CCCN2C(=O)Nc2ccc(C)cc2)c1 (stereo not given)	1.2 (≈ 3.41 µM)
CN(C)CCCNC1=CC(=O)CC(c2ccccc2)C1 (stereo not given)	34.8 (≈ 128 µM)
CCCCOc1cc(C(=O)NCCN(CC)CC)c2ccccc2n1.Cl	> 57
CC(C)CCC1(C)NC(=O)N(CC(=O)NCC(=O)Nc2ccc(F)c(F)c2F)C1=O (stereo not given)	> 64.3
Cc1c(NC(=O)c2ccc(NS(=O)(=O)c3ccc(F)c(F)c3)cc2)c(=O)n(-c2ccccc2)n1C	> 74.8
CCOC(=O)CNC(=O)Cn1cnc2c(oc3ccccc32)c1=O	> 49.4
O=S(=O)(c1ccc2ccccc2c1)N1CCN(c2ccc(O)cc2)CC1	4.6 (≈ 12.5 µM)
CC(=O)c1ccc(NC(=O)c2cccc(NC(=O)c3ccccc3)c2)cc1	0.7 (≈ 1.95 µM)
c1ccc(-c2csc3ncnc(NCc4ccccn4)c23)cc1	40.1 (≈ 126 µM)
CC(=O)c1ccc(N2CCN(C3CCC(C(C)(C)C)CC3)CC2)cc1 (stereo not given)	0.8 (≈ 2.34 µM)
CN(C)/C=C/C(=O)c1ccc(C(F)(F)F)cc1F	35 (≈ 134 µM)
CC1=C(C(=O)OC(C)C)C(c2ccc(C)o2)C(C(=O)OC(C)C)=C(C)N1	11.8 (≈ 32.6 µM)
Cc1c(C(=O)NC2CCCCC2)oc2ccc(F)cc12	2.8 (≈ 10.2 µM)
CC1CCN(S(=O)(=O)c2cnc[nH]2)CC1	> 34.4
Cc1c(C(=O)OCC(=O)N(C)c2ccccc2)cccc1[N+](=O)[O-]	38.1 (≈ 116 µM)
COc1cc(CN2CCCN(C)CC2)cc([N+](=O)[O-])c1O	33.9 (≈ 115 µM)
NS(=O)(=O)c1ccc(CCNC(=O)c2ccc(Cl)nc2)cc1	> 51
C=CCOc1cccc(CNc2cccc(C(=O)O)c2)c1	> 42.5

Structure (SMILES)	solubility kinetic [µg/mL]
COc1cc2ncnc(NCc3ccccc3F)c2cc1OC	41.8 (≈ 133 µM)
Cn1cc(C(=O)Nc2ccc(C#N)cc2)c2ccccc2c1=O	< 0.2
O=C(NC(=S)NCCC1=CCCCC1)c1cccnc1	22.2 (≈ 76.7 µM)
O=C(O)/C=C/c1ccc(S(=O)(=O)NCc2cccnc2)cc1	> 47.8
COc1c(N2CCN[C@H](C)C2)c(F)cc2c(=O)c(C(=O)O)cn(C3CC3)c12	38.6 (≈ 103 µM)
COc1ccc(NC(=O)Cc2ccc(C)c(C)c2)cc1Cl	2.1 (≈ 6.91 µM)
Cc1cc(C)c(S(=O)(=O)c2ccccc2)c(=O)[nH]1	> 39.5
CN(C)/C=N/S(=O)(=O)c1ccc(Cl)c(Cl)c1	> 42.2
N#Cc1ccccc1NC(=O)COC(=O)c1ccc(F)cc1F	11.1 (≈ 35.1 µM)
CC(=O)NC(=O)COC(=O)c1ccc2ncsc2c1	27.5 (≈ 98.8 µM)
CC(C)c1nc2oc3c(N(C)CCO)ncnc3c2c2c1CCC2	0.9 (≈ 2.76 µM)
Cn1ncc2c(=O)[nH]cnc21	> 22.5
CC(=O)Nc1ccc(NC(=O)Cc2ccc(-c3ccccc3)cc2)cc1	< 0.4
Cc1ccc(C)c(NC(=O)COC(=O)Cc2ccsc2)c1	42.5 (≈ 140 µM)
CC(=O)N1CC(=O)Nc2ccc(Cl)cc2C1c1ccccc1 (stereo not given)	> 47.2
Oc1[nH]c2ccccc2c1C=Nc1ccccc1	0.7 (≈ 2.96 µM)
Cc1cc(C(=O)Nc2ccccc2C)on1	> 32.4
COc1cc(C(=O)NC(c2ccccc2)c2ccccc2)cc(OC)c1C	< 0.8
Cc1cc(C)c(S(=O)(=O)Nc2ccccn2)c(C)c1	4.7 (≈ 17 µM)
Cc1ccc(CC2C(=O)N(c3ccccc3)C(=O)C2C)cc1 (stereo not given)	7.6 (≈ 25.9 µM)
Cc1ccc(OC(C)C(=O)Nc2ccncc2)cc1C (stereo not given)	34 (≈ 126 µM)
O=C(O)CCCN1C(=O)c2ccccc2Sc2ncccc21	> 47.2
O=C(Nc1ccc(Cl)cc1)c1csc(Cc2ccccc2)n1	1.1 (≈ 3.35 µM)
Cl.O=C(O)CSc1nc(-c2ccccc2)c(-c2ccccc2)[nH]1	> 52

Structure (SMILES)	solubility kinetic [µg/mL]
CN1CCCN(Cc2ccccc2Br)CC1	35.3 (≈ 125 µM)
O=C(Nc1ccc(Br)cc1)c1cnc[nH]1	> 39.9
Cc1ccc2c(c1)c1c3n2CCN(CCC(=O)O)C3CCC1 (stereo not given)	> 44.8
O=C(NC(=S)NC1CCCCC1)c1ccc(F)cc1	2.1 (≈ 7.49 µM)
O=C(NCC1CCCO1)c1ccc[nH]1 (stereo not given)	> 29.1
O=C1CCCN1CCCNS(=O)(=O)c1cccs1	> 43.3
Cc1nonc1OCCN1CCN(c2ccc([N+](=O)[O-])cc2)CC1	42.6 (≈ 128 µM)
O=C(O)CSc1ncccn1	> 25.5
COc1cc(CO)ccc1OCC(=O)N1CCc2ccccc21	> 47
Fc1ccc(NC(=S)Nc2cccc3ccccc23)cc1	16.7 (≈ 56.3 µM)
CC(=O)C(C(c1ccccc1)c1c[nH]c2ccccc12)[N+](=O)[O-] (stereo not given)	29.1 (≈ 94.4 µM)
Cc1cc(N2Cc3ccccc3C2)ccc1C=O	7.1 (≈ 29.9 µM)
CCc1ccc(S(=O)(=O)Nc2nccs2)cc1	27.5 (≈ 102 µM)
COc1ccc(C(O)Cn2cc([N+](=O)[O-])nc2C)cc1 (stereo not given)	39 (≈ 141 µM)
Cc1nc([N+](=O)[O-])cn1CC(=O)c1ccccc1	31.5 (≈ 128 µM)
CCCCNC(=O)N1CCN(C(c2ccccc2)c2ccccc2)CC1	5 (≈ 14.2 µM)
CCCC(=O)Nc1ccc(S(=O)(=O)Nc2cc(OC)ncn2)cc1	> 52.6
COc1cccc(OC)c1C(=O)N1CCNCC1.O=C(O)C(=O)O	49.7
CC1(C)CC(NC(=O)N2c3ccccc3Sc3ccccc32)CC(C)(C)N1	43.1 (≈ 113 µM)
CN1CCC(=NOc2ccc([N+](=O)[O-])cc2)CC1	> 37.4
COc1ccc(NC(=O)/C(C#N)=C/c2cccnc2)c(OC)c1	24.8 (≈ 80.2 µM)
COc1ccc2c(c1)c(C(=O)C(C)N1CCCCC1)c(C)n2C (stereo not given)	< 0.3
Cc1ccc(CCNC(=O)CSCc2ccc(F)cc2)cc1	13.5 (≈ 42.5 µM)
CCOC(=O)c1ccc(C(=S)N2CCCC2)cc1	37.3 (≈ 142 µM)

Structure (SMILES)	solubility kinetic [µg/mL]
CCNC(=S)Nc1ccc(-c2nc3ccccc3[nH]2)cc1	> 44.5
Cc1ccsc1C(=O)NCc1ccc(Cl)cc1	1.8 (≈ 6.77 µM)
Cc1c(Cl)cccc1NC(=S)NCCc1ccccn1	> 45.9
CN(C)C(=O)O/N=C(\N)COc1ccc(C(C)(C)C)cc1	36 (≈ 123 µM)
CC(=O)Nc1ccc2c(c1)C(=O)N(c1cccc3ccccc13)C2=O	8.2 (≈ 24.8 µM)
CCOc1ccc(C(=O)CC(C(=O)O)N2CCCCC2)cc1 (stereo not given)	> 45.8
Cc1ccccc1CC(=O)N1CCN(S(=O)(=O)c2ccc(Cl)s2)CC1	5.6 (≈ 14 µM)
O=C(Nc1ccccc1)Nc1ccc(Cl)nc1Cl	3.9 (≈ 13.8 µM)
C=CCOc1c(CNc2ccc3[nH]c(=O)[nH]c3c2)cccc1OC	> 48.8
N/C(Cc1ccc([N+](=O)[O-])cc1)=N\OC(=O)c1ccccc1F	2.6 (≈ 8.19 µM)
C=CCNC(=S)N(Cc1ccccc1)Cc1ccccc1	7.2 (≈ 24.3 µM)
O=C(NCCOc1ccccc1)C(=O)NCC1CCCO1 (stereo not given)	> 43.9
Cc1nc2ccccc2c2c(N)c3ccccc3n12	16.4 (≈ 66.3 µM)
CCCN1C(=O)/C(=C/c2ccc3c(c2)OCO3)NC1=S	1.9 (≈ 6.54 µM)
CC1CN(C(=S)Nc2ccc(SC(F)F)cc2)CC(C)O1 (stereo not given)	> 49.9
COc1ccccc1N(CC(=O)Nc1ccccc1C(F)(F)F)S(=O)(=O)c1cccs1	9 (≈ 19.1 µM)
Cc1ccc(OCC(=O)NC(C)c2ccccc2)cc1C (stereo not given)	> 42.5
Clc1ccc(CN2CCSCC2)c(Cl)c1	0.9 (≈ 3.43 µM)
CN(C)c1ccc(/C=C2\C(=O)NC(=O)N(CCc3ccc(F)cc3)C2=O)cc1	11.2 (≈ 29.4 µM)
O=S(=O)(c1ccc(F)c(F)c1)N1CCN(c2ncccn2)CC1	2.3 (≈ 6.76 µM)
O=C(O)CNC(=S)N(Cc1ccccc1F)C1CCCCC1	> 48.7
CCCCn1c(O)c(C(C)=Nc2ccc3c(c2)CCC3)c(=O)[nH]c1=O	< 0.2
COc1ccc(C(=O)Nc2nc3ccccc3s2)cc1	< 0.3
Cc1cc(O)c(C(=O)Cc2csc(C)n2)c(O)c1	4.1 (≈ 15.6 µM)

Structure (SMILES)	solubility kinetic [µg/mL]
COc1ccccc1N1CCN(C(=O)c2cc3cc(Cl)ccc3[nH]2)CC1	< 0.3
O=C(Nc1ccc(F)cc1)c1ccc2nsnc2c1	5.4 (≈ 19.8 µM)
O=C(COC(=O)c1c(Cl)cccc1Cl)NC1CCCCC1	> 49.5
Cc1nn(CC(=O)N2CCN(C(=O)c3ccco3)CC2)c(C)c1[N+](=O)[O-]	> 54.2
CCSC1=C(C#N)C2(CCCCC2)C2=C(CC(C)(C)CC2=O)N1	1 (≈ 3.03 µM)
COc1ccc(Cc2nnc(NCCO)[nH]c2=O)cc1	> 41.4
Cc1csc(NC(=O)C2CSC3(C)CCC(=O)N23)n1 (stereo not given)	> 44.6
CC(=O)Nc1nnc(S(N)(=O)=O)s1	> 33.3
O=C(NCC1CCCO1)c1cccc(S(=O)(=O)Nc2cccc(C(F)(F)F)c2)c1 (stereo not given)	2.1 (≈ 4.9 µM)
O=C(O)CN1CCN(C(c2ccccc2)c2ccccc2)CC1	> 46.6
COc1ccccc1CNC(=O)COC(=O)c1cc(C)nc2ccccc12	14.6 (≈ 40.1 µM)
O=C(O)CN1C(=O)C2(OCCO2)c2cc(Br)ccc21	> 49.2
CCOc1cc2c3c(c1)C(C)=CC(C)(C)N3C(=O)C2=O	< 0.6
CN(C(=O)CSc1nc2ccccc2c(=O)n1-c1ccccc1F)C1CCS(=O)(=O)C1 (stereo not given)	16.2 (≈ 35.1 µM)
Cc1ccccc1-c1noc(CNC(=O)COc2ccccc2)n1	7.7 (≈ 23.8 µM)
Cc1snc(SCc2cccc(Cl)c2)c1C#N	< 0.3
Cc1ccc(CSCC(=O)NCc2ccc(F)cc2)cc1	23.2 (≈ 76.5 µM)
O=C(CCCc1ccccc1)Nc1ccccc1[N+](=O)[O-]	15.2 (≈ 53.5 µM)
O=C(c1ccc2[nH]c(=O)c(=O)[nH]c2c1)N1CCc2ccccc2C1	> 48.2
CC(C)CN1CCN(Cc2ccccc2C(F)(F)F)CC1CCO (stereo not given)	48.7 (≈ 141 µM)
Cc1ccc(C(=O)Nc2nccs2)cc1	16.5 (≈ 75.6 µM)
CCOc1ccc(NC(=O)c2ccc(CN3CCc4ccccc4C3)cc2)cc1	< 0.4
Cc1ccc(N(CC(=O)N2CCCC2)S(C)(=O)=O)c(C)c1	> 46.6
O=C(NC(=O)c1ccccc1)Nc1ccccn1	9.5 (≈ 39.4 µM)
